# Results as given in patent US12458622B2, “Methods of treatment of coronavirus-induced inflammation conditions” (priority 2020, dated 2025).
# Where two headings read alike, the source gives them in different places.
# Columns and labels:
# Stump-tailed Monkeys = details: cited from earlier work
# Rhesus Monkeys = details: daily IV dosing at 0, 2, 10 and 50 mg/kg, 6 months; cited from earlier work
# APP/PS1 mice = test: Recruitment of microglial cells around amyloid plaques; details: mouse, in vivo
# Squirrel Monkeys = details: 6 months, cited from earlier work
# Wistar Rats = details: 4% cromolyn 0, 4, 8, 16 mg/day, 3 month; cited from earlier work
# pH of solution in saline = format: physicochemical; details: 25 mg in 25 ml of saline
# Description: In some embodiments, the compounds of the invention are provided as part of a kit for infusion. The kit contains from about 25 mg to about 250 mg of the compound of Formula I or II in a volume of buffer or saline from about 25 ml to about 250 ml. The pH of saline or buffer pH ranges from about 5.8 to about 6.8. […] Alternatively, the buffer can be Ringer's lactate (pH 6.5). Alternatively yet, the buffer can be citrate buffer (pH 6.0).
# TgSOD1^G93A mice = test: Meso Scale Discovery multi-spot cytokine assay in spinal cord and plasma of TgSOD1 mice; details: 6.3 mg/kg i.p.
# [1] = TgSOD1-Cromolyn vs TgSOD1-Vehicle, p=0.0273
structure (smiles),measurement,setting,value
O=C(O)c1cc(=O)c2c(OCC(O)COc3cccc4oc(C(=O)O)cc(=O)c34)cccc2o1 [cromolyn],Survival until the scheduled necropsy,"Stump-tailed Monkeys; single IV dose 333 mg/kg, 4 to 10-day observation",given 333 mg/kg survived
same,Clinical signs,Stump-tailed Monkeys; single IV dose 5082 mg/kg,"stertorous breathing,"
same,Time to death of one monkey,Stump-tailed Monkeys; single IV dose 5082 mg/kg,mg/kg died within 4 hours
same,"Body weight, observations, clinical laboratory results, organ weights, gross and microscopic pathology",Rhesus Monkeys,within normal limits and
same,Recruitment of microglial cells around amyloid plaques,APP/PS1 mice,increased recruitment of microglial cells
same,"Ill health, general toxicity, or nasal irritation","Squirrel Monkeys; 2% cromolyn 0, 2, 6, 12 mg/day","No signs of ill health,"
same,"Ill health, general toxicity, or nasal irritation","Squirrel Monkeys; 4% cromolyn 0, 5, 16, 32 mg/day","No signs of ill health,"
same,General toxicity,Wistar Rats,No general toxic effects.
same,pH,pH of solution in saline,6.8
same,IL-10 level in plasma,"TgSOD1^G93A mice; TgSOD1-Cromolyn vs TgSOD1-Vehicle, p=0.0095",significantly decreased
same,IL-2 level in plasma,"TgSOD1^G93A mice; TgSOD1-Cromolyn vs TgSOD1-Vehicle, p=0.0211",significantly decreased
same,IL-6 level in plasma,TgSOD1^G93A mice; [1],significantly decreased
same,TNFα level in spinal cord,TgSOD1^G93A mice; [1],significant decrease
same,TNFα level in plasma,"TgSOD1^G93A mice; TgSOD1-Cromolyn vs TgSOD1-Vehicle, p=0.110",trend towards a decrease
same,IL-13 level in plasma,"TgSOD1^G93A mice; between groups, FIG. 2A",no statistically significant difference
same,IL-5 level in plasma,"TgSOD1^G93A mice; between groups, FIG. 2C",no statistically significant difference
